# Columns and labels:
# [1] = Comparative stability of amorphous ditartrate and crystalline fumarate, powder form, HPLC analysis; assay type: physicochemical; conditions: for degradation in powder form: 14 days
# Experimental: Comparative stability of amorphous ditartrate and crystalline fumarate:
# 1. Raw material: • Batch OP3.0B: amorphous vinflunine ditartrate. • Batch JLM4008400: crystalline vinflunine fumarate.
# (§1) 2. Stability conditions: • Stability studies are carried out on the powder form away from light under the following conditions: • closed bottle: 50° C., • open bottle: 40° C., 75% relative humidity. • A measurement is taken at T0 and at T0+14 days.
# 3. Analytical conditions: • HPLC system: • Column: Sunfire C18, 5 μm, 4.6×250 mm (Waters) temperature maintained at 35° C. • Eluent: CH3CN/MeOH/H2O/KH2PO4 400/150/450/6.8 (ml/ml/ml/g) adjusted to pH 7 (with KOH). • Flow rate: 1 ml/min • Detection: 269 nm
# [2] = Water content of the powder in the comparative stability study; assay type: physicochemical
# Experimental: as §1
# [3] = T0 + 14 d, 40° C., 75% RH, open bottle, powder away from light
# [4] = T0 + 14 d, 50° C., closed bottle, powder away from light
# [5] = in the presence of moisture (40° C., 75% RH)
# [6] = T0 + 14 d, 40° C., 75% RH, open bottle
Substance,degradation in powder form ([1]; 50° C. (closed bottle)),"HPLC analysis [1, 3]","HPLC analysis [1, 4]","HPLC analysis ([1]; T0, powder, before storage)","degradation in powder form [1, 5]",Water content ([2]; T0),"Water content [2, 6]"
vinflunine ditartrate [OP3.OB],2.1%,98.21%,97.18%,99.28%,1.07%,6.27%,10.18%
vinflunine fumarate [JLM4008400],less than 0.2%,99.38%,99.56%,99.52%,less than 0.2%,1.33%,4.18%

# Source: US8343991B2, “Anhydrous crystalline vinflunine salts, method of preparation and use thereof as a drug and means of vinflunine purification” (Pierre Fabre Medicament, priority 2007, dated 2013)
